Legend:
NCI-H226 = test: 72H TEAD Proliferation Assay (Cell Titer-Glo 2.0); type: cell-based; conditions: Homo sapiens, NCI-H226, 72 h, CTG 2.0, cell line not given
Description: The effect of TEAD inhibition on cell proliferation was assayed using Cell Titer Glo (CTG) 2.0 to measure response in mesothelioma cell lines NCI-H226 (ATCC, #CRL-5826) and NCI-H28 (ATCC, #CRL-5820).
The 72H TEAD Proliferation assay utilizes Cell Titer-Glo 2.0 (Promega, #G9243) to measure the proliferation of cells in the presence or absence of compound. Cell Titer-Glo 2.0 determines the amount of viable cells by quantifying ATP (an indication of metabolically active cells). It utilizes the conversion of Luciferin to Oxyluciferin and a luminescent signal with the use of ATP to report the quantity of viable cells in culture. Within cells that are continually growing, ATP is being synthesized to meet their metabolic demands, meanwhile the opposite is true for cells that are dying or slowing down their proliferation and either no longer using ATP or are using less, respectively. The NF2-deficient NCI-H226 has been genetically validated as a cell line that is sensitive to TEAD inhibition. The NF2-wild type NCI-H28 has been genetically validated as a cell line that is not sensitive to TEAD inhibition and grows independently of TEAD activity.
Compounds were screened against the responsive NCI-H226 cell line to assess the compounds' ability to inhibit TEAD and cell growth. Compounds were also screened against the non-responsive NCI-H28 cell line to ascertain whether the inhibition of cell growth was due to inhibition of the target TEAD or whether the inhibition was due to off-target cytotoxicity.
1) Assay ready plates (ARPs) were prepared by Echo acoustic liquid handler. For each compound, duplicate of 10-point half-log dilution series were dispensed in a 384-well microplate (Corning 3571).
5) NCI-H226 or NCI-H28 cells were harvested from culture in Assay Medium 1 and the multidrop Combi reagent dispenser was used to seed cells at 500 cells per 50 ul in each well of the ARPs and one Corning 3571 plate without compounds for Time 0 (TO) readout.
6) The TO plate was incubated for 2 hours at 37° C. with 5% CO2 to allow cells to settle, then the CTG Assay was performed.
7) All ARPs were incubated for 72 hours at 37° C. with 5% CO2, then the CTG Assay was performed for Time 72H (T72) readout.
8) CTG Assay: Bravo liquid handler (Agilent) was used to add 25 ul of CTG 2.0 to all columns of the plate except for Column 24, which was used to subtract out the background. After CTG addition, plates were placed on shaker at 800 RPM for 15 minutes at room temperature and kept in the dark. Luminescence was measured using EnVision multilabel plate reader with ultra-sensitive detection module.
9) Data Analysis: First background luminescence (no CTG wells) was subtracted from luminescence reading of all wells, then TO luminescence was subtracted from T72 luminescence. To compare anti-proliferative effect of compounds, GI50 was obtained by fitting dose response curves with nonlinear regression curve fit.

[1] = molecular target: TEAD1 protein (YAP Binding Domain) (Homo sapiens, UniProt P28347); test: TEAD1 lipid pocket compound displacement assay (TR-FRET, Cy5-probe); conditions: 60 minutes incubation at room temperature; TR-FRET 665 nm/620 nm; read-out: CDA IC50
TEAD1 protein (YAP Binding Domain), sequence (P28347 209-426 limits assumed): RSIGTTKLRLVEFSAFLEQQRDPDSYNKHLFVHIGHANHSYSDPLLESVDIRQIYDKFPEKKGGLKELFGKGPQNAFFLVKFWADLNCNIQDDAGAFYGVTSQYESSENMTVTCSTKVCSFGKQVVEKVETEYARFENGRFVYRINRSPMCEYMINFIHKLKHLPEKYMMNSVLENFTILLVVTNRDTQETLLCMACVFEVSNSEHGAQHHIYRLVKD
Description: Compound Displacement Assay.
A TEAD1 lipid pocket displacement assay was carried out according to the following protocol. Purified His-tagged TEAD1 protein (YAP Binding Domain) was pre-mixed with a Cy5-probe (Cy5-conjugated to a small molecule that binds in the TEAD1 lipid pocket) and Terbium-labeled anti-His antibody (Cisbio Cat 61HI2TLB). The binding of the Cy5-probe to anti-His-Tb/His-tag TEAD1 complex yielded a TR-FRET signal. […] After 60 minutes incubation at room temperature of compounds with the His-TEAD1/anti-His-Tb/Cy5-probe complex, the plate was read on a plate reader (BMG ClarioStar Cat 430-1300) using TR-FRET mode with wavelengths of 665 nm/620 nm. The potency of compounds as TEAD1 lipid pocket binders was determined by IC50 value generated using a non-linear 4 parameter curve fit.

Row | Structure (SMILES) | GI50 (NCI-H226) [nM] | IC50 [1] [nM]
1 | C=CC(=O)Nc1ccc(OCC2CCC(F)(F)CC2)c(C#N)c1 [Compound 50, N-(3-cyano-4-((4,4-difluorocyclohexyl)methoxy)phenyl)acrylamide] | ≤ 250 | ≤ 250
2 | C=CC(=O)Nc1ccc(OCc2cccc(F)c2)c(C)c1 [Compound 51, N-(4-((3-fluorobenzyl)oxy)-3-methylphenyl)acrylamide] | > 3000 | 250 to 500
3 | C=CC(=O)Nc1ccc(OCC2CCOCC2)c(F)c1 [Compound 54, N-(3-fluoro-4-((tetrahydro-2H-pyran-4-yl)methoxy)phenyl)acrylamide] | 1000 to 3000 | > 2000
4 | C=CC(=O)Nc1ccc(OCC2CCCCC2)c(F)c1 [Compound 55, N-(4-(cyclohexylmethoxy)-3-fluorophenyl)acrylamide] | 250 to 1000 | ≤ 250
5 | C=CC(=O)Nc1ccc(OCc2csc3ccccc23)c(F)c1 [Compound 60, N-(4-(benzo[b]thiophen-3-ylmethoxy)-3-fluorophenyl)acrylamide] | > 3000 | 500 to 2000
6 | C=CC(=O)Nc1ccc(OCc2ccc(C#N)s2)c(F)c1 [Compound 63, N-(4-((5-cyanothiophen-2-yl)methoxy)-3-fluorophenyl)acrylamide] | 1000 to 3000 | 500 to 2000
7 | C=CC(=O)Nc1ccc(OCc2cncc(C)c2)c(F)c1 [Compound 71, N-(3-fluoro-4-((5-methylpyridin-3-yl)methoxy)phenyl)acrylamide] | > 3000 | > 2000
8 | C=CC(=O)Nc1ccc(OCc2ccc(Cl)nc2)c(F)c1 [Compound 72, N-(4-((6-chloropyridin-3-yl)methoxy)-3-fluorophenyl)acrylamide] | > 3000 | 500 to 2000
9 | C=CC(=O)Nc1ccc(OCc2cccnc2Br)c(F)c1 [Compound 74, N-(4-((2-bromopyridin-3-yl)methoxy)-3-fluorophenyl)acrylamide] | > 3000 | > 2000
10 | C=CC(=O)Nc1ccc(OCc2cccnc2Cl)c(F)c1 [Compound 76, N-(4-((2-chloropyridin-3-yl)methoxy)-3-fluorophenyl)acrylamide] | > 3000 | > 2000
11 | C=CC(=O)Nc1ccc(OCc2cc(F)ccc2Cl)c(F)c1 [Compound 78, N-(4-((2-chloro-5-fluorobenzyl)oxy)-3-fluorophenyl)acrylamide] | > 3000 | 500 to 2000
12 | C=CC(=O)Nc1ccc(OCc2cccc(F)c2Cl)c(F)c1 [Compound 83, N-(4-((2-chloro-3-fluorobenzyl)oxy)-3-fluorophenyl)acrylamide] | 250 to 1000 | ≤ 250
13 | C=CC(=O)Nc1ccc(OCc2ccc(F)cc2Cl)c(F)c1 [Compound 84, N-(4-((2-chloro-4-fluorobenzyl)oxy)-3-fluorophenyl)acrylamide] | 1000 to 3000 | 500 to 2000
14 | C=CC(=O)Nc1ccc(OCC2CCCC(C(F)(F)F)C2)c(F)c1 (centres unmarked) [Compound 91, N-(3-fluoro-4-((3-(trifluoromethyl)cyclohexyl)methoxy)phenyl)acrylamide] | 250 to 1000 | ≤ 250
15 | C=CC(=O)Nc1ccc(OCc2ccc(F)c(F)c2)c(F)c1 [Compound 96, N-(4-((3,4-difluorobenzyl)oxy)-3-fluorophenyl)acrylamide] | 250 to 1000 | ≤ 250
16 | C=CC(=O)Nc1ccc(OCc2cnc(C(F)(F)F)nc2)c(F)c1 [Compound 98, N-(3-fluoro-4-((2-(trifluoromethyl)pyrimidin-5-yl)methoxy)phenyl)acrylamide] | 1000 to 3000 | > 2000
17 | C=CC(=O)Nc1ccc(OCc2cccc(Cl)c2F)c(F)c1 [Compound 99, N-(4-((3-chloro-2-fluorobenzyl)oxy)-3-fluorophenyl)acrylamide] | > 3000 | ≤ 250

Row | Structure (SMILES) | GI50 (NCI-H226) [nM] | IC50 [1] [nM]
18 | C=CC(=O)Nc1ccc(OCc2cccc(F)c2)c(F)c1 [Compound 100, N-(3-fluoro-4-((3-fluorobenzyl)oxy)phenyl)acrylamide] | > 3000 | 250 to 500
19 | C=CC(=O)Nc1ccc(NCc2cccc(F)c2)c(F)c1 [Compound 101, N-(3-fluoro-4-((3-fluorobenzyl)amino)phenyl)acrylamide] | 1000 to 3000 | 500 to 2000
20 | C=CC(=O)Nc1ccc(OCCC(F)(F)F)c(F)c1 [Compound 103, N-(3-fluoro-4-(3,3,3-trifluoropropoxy)phenyl)acrylamide] | 1000 to 3000 | > 2000
21 | C=CC(=O)Nc1ccc(OCc2cncc(C(F)(F)F)c2)c(F)c1 [Compound 104, N-(3-fluoro-4-((5-(trifluoromethyl)pyridin-3-yl)methoxy)phenyl)acrylamide] | 250 to 1000 | 250 to 500
22 | C=CC(=O)Nc1ccc(OC(C)c2cccc(C(F)(F)F)c2)c(F)c1 (centres unmarked) [Compound 105, N-(3-fluoro-4-(1-(3-(trifluoromethyl)phenyl)ethoxy)phenyl)acrylamide] | 250 to 1000 | ≤ 250
23 | C=CC(=O)Nc1ccc(Oc2cccc(F)c2)c(F)c1 [Compound 106, N-(3-fluoro-4-(3-fluorophenoxy)phenyl)acrylamide] | > 3000 | ≤ 250
24 | C=CC(=O)Nc1ccc(Oc2ccc(F)cc2)c(F)c1 [Compound 107, N-(3-fluoro-4-(4-fluorophenoxy)phenyl)acrylamide] | 250 to 1000 | ≤ 250
25 | C=CC(=O)Nc1ccc(Nc2ccc(F)cc2)c(F)c1 [Compound 108, N-(3-fluoro-4-((4-fluorophenyl)amino)phenyl)acrylamide] | 250 to 1000 | > 2000
26 | C=CC(=O)Nc1ccc(NCC2CCC(F)(F)CC2)c(F)c1 [Compound 109, N-(4-(((4,4-difluorocyclohexyl)methyl)amino)-3-fluorophenyl)acrylamide] | 250 to 1000 | 250 to 500
27 | C=CC(=O)Nc1ccc(Oc2cccc(C(C)(C)C)c2)c(F)c1 [Compound 110, N-(4-(3-(tert-butyl)phenoxy)-3-fluorophenyl)acrylamide] | 1000 to 3000 | 250 to 500
28 | C=CC(=O)Nc1ccc(Oc2ccc(C(C)(C)C)cc2)c(F)c1 [Compound 111, N-(4-(4-(tert-butyl)phenoxy)-3-fluorophenyl)acrylamide] | 250 to 1000 | ≤ 250
29 | C=CC(=O)Nc1ccc(Oc2ccccc2)c(F)c1 [Compound 112, N-(3-fluoro-4-phenoxyphenyl)acrylamide] | > 3000 | 250 to 500
30 | C=CC(=O)Nc1ccc(Oc2cccc(C)c2)c(F)c1 [Compound 113, N-(3-fluoro-4-(m-tolyloxy)phenyl)acrylamide] | 1000 to 3000 | ≤ 250
31 | C=CC(=O)Nc1ccc(Oc2ccc(C)cc2)c(F)c1 [Compound 114, N-(3-fluoro-4-(p-tolyloxy)phenyl)acrylamide] | > 3000 | ≤ 250
32 | C=CC(=O)Nc1ccc(OCc2cccc(C(F)(F)F)n2)c(F)c1 [Compound 115, N-(3-fluoro-4-((6-(trifluoromethyl)pyridin-2-yl)methoxy)phenyl)acrylamide] | ≤ 250 | 250 to 500
33 | C=CC(=O)Nc1ccc(OCc2ccnc(C(F)(F)F)c2)c(F)c1 [Compound 116, N-(3-fluoro-4-((2-(trifluoromethyl)pyridin-4-yl)methoxy)phenyl)acrylamide] | 250 to 1000 | 250 to 500
34 | C=CC(=O)Nc1ccc(OCc2cc(C(F)(F)F)ccn2)c(F)c1 [Compound 117, N-(3-fluoro-4-((4-(trifluoromethyl)pyridin-2-yl)methoxy)phenyl)acrylamide] | 250 to 1000 | 250 to 500

Reference: US20230115350A1 (Cedilla Therapeutics, Inc., priority 2021, published 2023)
